According to PubChem BioAssay (NCI):
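Assay format: 96-well plates, 48-hour exposure. At the TGI there is no net growth.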

Assays:
Assay in all cases: DTP human tumour cell line panel, 48 h
MDA-MB-231 breast = test system: MDA-MB-231 breast
MALME-3M melanoma = test system: MALME-3M melanoma
OVCAR-4 ovarian = test system: OVCAR-4 ovarian
UACC-62 melanoma = test system: UACC-62 melanoma
ACHN renal = test system: ACHN renal
NCI-H522 lung = test system: NCI-H522 lung
IGROV1 ovarian = test system: IGROV1 ovarian
SK-MEL-5 melanoma = test system: SK-MEL-5 melanoma

Structure (SMILES)	TGI (MDA-MB-231 breast)	TGI (MALME-3M melanoma)	TGI (OVCAR-4 ovarian)	TGI (UACC-62 melanoma)	TGI (ACHN renal)	TGI (NCI-H522 lung)	TGI (IGROV1 ovarian)	TGI (SK-MEL-5 melanoma)
O=C1CN(c2ccccc2)Cc2nc(Cl)ccc2N1	> 100 µM	> 100 µM	> 100 µM	> 100 µM	> 100 µM	> 100 µM	> 100 µM	> 100 µM
O=C(NCCN1CCCCC1)c1ccc(Br)cc1	> 100 µM	> 100 µM	> 100 µM		> 100 µM	> 100 µM	> 100 µM	> 100 µM
CC(C)(C)OC(=O)NC1CCCC1C(=O)C1=CCCC1 (stereo not drawn)	> 100 µM		> 100 µM	> 100 µM	> 100 µM		> 100 µM	> 100 µM
C#CC[C@@H]1C(=O)N(Cc2ccc(OC)cc2)[C@@H](C(C)C)C(=O)N1Cc1ccc(OC)cc1	> 100 µM	> 100 µM	> 100 µM	> 100 µM	> 100 µM	99.5 µM	> 100 µM	30.3 µM
COC(=O)C1(NC(=O)C(Cc2ccccc2)N(C(=O)OC(C)(C)C)C(=O)OC(C)(C)C)CCCC1 (stereo not drawn)	> 100 µM			> 100 µM	> 10 µM		> 100 µM	> 100 µM
CC1(C)OP(=O)(c2ccccc2)C=C1Sc1ccc([N+](=O)[O-])cc1[N+](=O)[O-] (stereo not drawn)		> 100 µM	> 100 µM	> 100 µM	> 100 µM	36.6 µM	> 100 µM	> 100 µM
COC(=O)C(CC(C)C)NC(=O)C(NC(=O)c1ccc(-c2ccc(Cl)cc2Cl)o1)C(C)C (stereo not drawn)	35.3 µM		> 100 µM	44.8 µM	85.6 µM	55.5 µM	> 100 µM	49.9 µM
CCOC(=O)c1c[nH]c(C(=O)OCC)c1-c1cccn1-c1ccccc1	> 100 µM	56.4 µM		38.9 µM	> 100 µM	55.4 µM	51.9 µM	28.4 µM
O=[N+]([O-])c1ccc(SN=S=NSc2cccc(SN=S=NSc3ccc([N+](=O)[O-])cc3)c2)cc1		> 100 µM	> 100 µM	> 100 µM	> 100 µM	34.3 µM	> 100 µM	> 100 µM
FC(F)(F)c1ccc(C2ON=C(c3ccccc3)N2C23CC4CC(CC(C4)C2)C3)cc1 (stereo not drawn)	> 10 µM	> 10 µM	> 10 µM	> 10 µM	> 10 µM	> 10 µM	> 10 µM	> 10 µM
O=c1[nH]nc(Cc2ccccc2)n1/N=C/c1cccs1	> 100 µM	> 100 µM	> 100 µM	> 100 µM	> 100 µM			
CC1(C)CCN2C(=O)C34CCCC3CC21S4 (stereo not drawn)	> 100 µM	> 100 µM	> 100 µM	> 100 µM	> 100 µM	> 100 µM	> 100 µM	> 100 µM
COc1ccc(C2=Nc3c(nc(OC)[nH]c3=O)NC(c3ccccc3)C2)cc1 (stereo not drawn)	53.4 µM	> 100 µM		> 100 µM	83.5 µM	> 100 µM	> 100 µM	33.7 µM
Nc1nc(NNc2cccc(F)c2)cc(=O)[nH]1	> 100 µM	> 100 µM	> 100 µM		> 100 µM		> 100 µM	> 100 µM
O=C1NC2NC3NC(=O)NC3NC2N1 (stereo not drawn)	> 100 µM	> 100 µM		> 100 µM	> 100 µM	> 100 µM	> 100 µM	> 100 µM
